target: T1, K-Ras G12C (Homo sapiens, UniProt P01116, G12C); assay: CAF assay (% CAF; method in Example 7, not in this part); format: binding; details: 10 uM, 1 h; Table 3
T1 construct: This protein contained 188 amino acids in total, including an N-terminal 6-Histidine tag; made in house; host or cells: E. coli BL21

Structure (SMILES) | % CAF @ 10 uM, 1h [%]
C=CC(=O)N1CCN(c2nc(=O)n3c4c(c(-c5ccc(F)cc5)c(Cl)cc24)SCC3)[C@@H](C)C1 [Example 151, (S)-7-(4-acryloyl-2-methylpiperazin-1-yl)-9-chloro-10-(4-fluorophenyl)-2,3-dihydro-5H-[1,4]thiazino[2,3,4-ij]quinazolin-5-one] | 94.1
C=CC(=O)N1CCN(c2nc(=O)n3c4c(c(-c5cc(O)ccc5F)c(Cl)cc24)SCC3)[C@@H](C)C1 [Example 152, 7-((S)-4-acryloyl-2-methylpiperazin-1-yl)-9-chloro-10-(2-fluoro-5-hydroxyphenyl)-2,3-dihydro-5H-[1,4]thiazino[2,3,4-ij]quinazolin-5-one] | 55.3
C=CC(=O)N1CCN(c2nc(=O)n3c4c(c(-c5cc(O)ccc5Cl)c(Cl)cc24)SCC3)[C@@H](C)C1 [Example 153, 7-((S)-4-acryloyl-2-methylpiperazin-1-yl)-9-chloro-10-(2-chloro-5-hydroxyphenyl)-2,3-dihydro-5H-[1,4]thiazino[2,3,4-ij]quinazolin-5-one] | 55.7
C=CC(=O)N1CCN(c2nc(=O)n3c4c(c(-c5cccc6ccccc56)c(Cl)cc24)SCC3)[C@@H](C)C1 [Example 154, (R)-7-((S)-4-acryloyl-2-methylpiperazin-1-yl)-9-chloro-10-(naphthalen-1-yl)-2,3-dihydro-5H-[1,4]thiazino[2,3,4-ij]quinazolin-5-one] | 24
C=CC(=O)N1CCN(c2nc(=O)n3c4c(c(-c5cccc6ccccc56)c(Cl)cc24)SCC3)[C@@H](C)C1 [Example 155, (S)-7-((S)-4-acryloyl-2-methylpiperazin-1-yl)-9-chloro-10-(naphthalen-1-yl)-2,3-dihydro-5H-[1,4]thiazino[2,3,4-ij]quinazolin-5-one] | 92.2
C=CC(=O)N1[C@@H](C)CN(c2nc(=O)n3c4c(c(-c5ccc(F)cc5F)c(Cl)cc24)SCC3)C[C@@H]1C [Example 156, 7-((3S,5S)-4-acryloyl-3,5-dimethylpiperazin-1-yl)-9-chloro-10-(2,4-difluorophenyl)-2,3-dihydro-5H-[1,4]thiazino[2,3,4-ij]quinazolin-5-one] | 0
C=CC(=O)N1[C@H](C)CN(c2nc(=O)n3c4c(c(-c5ccc(F)cc5F)c(Cl)cc24)SCC3)C[C@@H]1C [Example 157, 7-((3R,5S)-4-acryloyl-3,5-dimethylpiperazin-1-yl)-9-chloro-10-(2,4-difluorophenyl)-2,3-dihydro-5H-[1,4]thiazino[2,3,4-ij]quinazolin-5-one] | 95
C=CC(=O)N1CCN(c2nc(=O)n3c4c(c(-c5ccc(F)cc5F)c(Cl)cc24)SCC3)[C@H](C)C1 [Example 158, 7-((R)-4-acryloyl-2-methylpiperazin-1-yl)-9-chloro-10-(2,4-difluorophenyl)-2,3-dihydro-5H-[1,4]thiazino[2,3,4-ij]quinazolin-5-one] | 64
C=CC(=O)N1CCN(c2nc(=O)n3c4c(c(-c5c(C)ccc6[nH]ncc56)c(Cl)cc24)SCC3)[C@@H](C)C1 [Example 159, 7-((S)-4-acryloyl-2-methylpiperazin-1-yl)-9-chloro-10-(5-methyl-1H-indazol-4-yl)-2,3-dihydro-5H-[1,4]thiazino[2,3,4-ij]quinazolin-5-one] | 37.2
C=CC(=O)N1CCN(c2nc(=O)n3c4c(c(-c5ccccc5F)c(Cl)cc24)SCC3)[C@@H](C)C1 [Example 160, 7-((S)-4-acryloyl-2-methylpiperazin-1-yl)-9-chloro-10-(2-fluorophenyl)-2,3-dihydro-5H-[1,4]thiazino[2,3,4-ij]quinazolin-5-one] | 72.7
C=CC(=O)N1C[C@H](C#N)N(c2nc(=O)n3c4c(c(-c5ccc(F)cc5F)c(Cl)cc24)SCC3)C[C@H]1C [Example 161, (2R,5R)-4-acryloyl-1-(9-chloro-10-(2,4-difluorophenyl)-5-oxo-2,3-dihydro-5H-[1,4]thiazino[2,3,4-ij]quinazolin-7-yl)-5-methylpiperazine-2-carbonitrile] | 1
C=CC(=O)N1CCN(c2nc(=O)n3c4c(c(-c5cc(C(F)F)ccc5F)c(Cl)cc24)SCC3)[C@@H](C)C1 [Example 162, 7-((S)-4-acryloyl-2-methylpiperazin-1-yl)-9-chloro-10-(5-(difluoromethyl)-2-fluorophenyl)-2,3-dihydro-5H-[1,4]thiazino[2,3,4-ij]quinazolin-5-one] | 39
C=CC(=O)N1CCN(c2nc(=O)n3c4c(c(-c5cc(OC(F)F)ccc5F)c(Cl)cc24)SCC3)[C@@H](C)C1 [Example 163, 7-((S)-4-acryloyl-2-methylpiperazin-1-yl)-9-chloro-10-(5-(difluoromethoxy)-2-fluorophenyl)-2,3-dihydro-5H-[1,4]thiazino[2,3,4-ij]quinazolin-5-one] | 41.4
C=CC(=O)N1CCN(c2nc(=O)n3c4c(c(-c5ccc(F)cc5F)c(Cl)cc24)SCC3)CC1 [Example 164, 7-(4-acryloylpiperazin-1-yl)-9-chloro-10-(2,4-difluorophenyl)-2,3-dihydro-5H-[1,4]thiazino[2,3,4-ij]quinazolin-5-one] | 95.1
C=CC(=O)N1C2CC1CN(c1nc(=O)n3c4c(c(-c5ccc(F)cc5F)c(Cl)cc14)SCC3)C2 [Example 165, 7-(6-acryloyl-3,6-diazabicyclo[3.1.1]heptan-3-yl)-9-chloro-10-(2,4-difluorophenyl)-2,3-dihydro-5H-[1,4]thiazino[2,3,4-ij]quinazolin-5-one] | 16.9
C=CC(=O)N1CCN(c2nc(=O)n3c4c(c(-c5ccc(F)cc5F)c(Cl)cc24)SCC3)CC1=O [Example 166, 7-(4-acryloyl-3-oxopiperazin-1-yl)-9-chloro-10-(2,4-difluorophenyl)-2,3-dihydro-5H-[1,4]thiazino[2,3,4-ij]quinazolin-5-one] | 65.5
C=CC(=O)N1CCN(c2nc(=O)n3c4c(c(-c5ccccc5C(F)(F)F)c(Cl)cc24)SCC3)[C@@H](C)C1 [Example 167, 7-((S)-4-acryloyl-2-methylpiperazin-1-yl)-9-chloro-10-(2-(trifluoromethyl)phenyl)-2,3-dihydro-5H-[1,4]thiazino[2,3,4-ij]quinazolin-5-one] | 69.8
C=CC(=O)N1CCN(c2nc(=O)n3c4c(c(-c5c(O)cccc5F)c(Cl)cc24)SCC3)[C@@H](C)C1 [Example 168, 7-((S)-4-acryloyl-2-methylpiperazin-1-yl)-9-chloro-10-(2-fluoro-6-hydroxyphenyl)-2,3-dihydro-5H-[1,4]thiazino[2,3,4-ij]quinazolin-5-one] | 30.6
C=CC(=O)N1CCN(c2nc(=O)n3c4c(c(-c5ccc(F)cc5F)c(Cl)cc24)SCC3)[C@@H](CN2CCC2)C1 [Example 169, 7-((S)-4-acryloyl-2-(azetidin-1-ylmethyl)piperazin-1-yl)-9-chloro-10-(2,4-difluorophenyl)-2,3-dihydro-5H-[1,4]thiazino[2,3,4-ij]quinazolin-5-one] | 23.3
C=CC(=O)N1CCN(c2nc(=O)n3c4c(c(-c5c(F)cccc5F)c(Cl)cc24)SCC3)[C@@H](C)C1 [Example 170, (S)-7-(4-acryloyl-2-methylpiperazin-1-yl)-9-chloro-10-(2,6-difluorophenyl)-2,3-dihydro-5H-[1,4]thiazino[2,3,4-ij]quinazolin-5-one] | 75.9
C=CC(=O)N1CCN(c2nc(=O)n3c4c(c(-c5cc(Cl)ccc5Cl)c(Cl)cc24)SCC3)[C@@H](C)C1 [Example 171, 7-((S)-4-acryloyl-2-methylpiperazin-1-yl)-9-chloro-10-(2,5-dichlorophenyl)-2,3-dihydro-5H-[1,4]thiazino[2,3,4-ij]quinazolin-5-one] | 48.9
C=CC(=O)N1CCN(c2nc(=O)n3c4c(c(-c5ccc(F)cc5F)c(Cl)cc24)SCC3)[C@@H](C#N)C1 [Example 173, (2R)-4-acryloyl-1-(9-chloro-10-(2,4-difluorophenyl)-5-oxo-2,3-dihydro-5H-[1,4]thiazino[2,3,4-ij]quinazolin-7-yl)piperazine-2-carbonitrile] | 2.2
C=CC(=O)N1CCN(c2nc(=O)n3c4c(c(-c5cccc(Cl)c5F)c(Cl)cc24)SCC3)[C@@H](C)C1 [Example 174, 7-((S)-4-acryloyl-2-methylpiperazin-1-yl)-9-chloro-10-(3-chloro-2-fluorophenyl)-2,3-dihydro-5H-[1,4]thiazino[2,3,4-ij]quinazolin-5-one] | 93.8
C=CC(=O)N1CCN(c2nc(=O)n3c4c(c(-c5cc(Cl)ccc5F)c(Cl)cc24)SCC3)[C@@H](C)C1 [Example 175, 7-((S)-4-acryloyl-2-methylpiperazin-1-yl)-9-chloro-10-(5-chloro-2-fluorophenyl)-2,3-dihydro-5H-[1,4]thiazino[2,3,4-ij]quinazolin-5-one] | 79.8
C=C(F)C(=O)N1CCN(c2nc(=O)n3c4c(c(-c5ccc(F)cc5F)c(Cl)cc24)SCC3)C[C@@H]1CC#N [Example 176, 2-((2S)-4-(9-chloro-10-(2,4-difluorophenyl)-5-oxo-2,3-dihydro-5H-[1,4]thiazino[2,3,4-ij]quinazolin-7-yl)-1-(2-fluoroacryloyl)piper-azin-2-yl)acetonitrile] | 40.5
C=CC(=O)N1CCN(c2nc(=O)n3c4c(c(-c5ccc(F)cc5F)c(Cl)cc24)SCC3)[C@@H](C)C1 [Example 179, (S)-7-((S)-4-acryloyl-2-methylpiperazin-1-yl)-9-chloro-10-(2,4-difluorophenyl)-2,3-dihydro-5H-[1,4]thiazino[2,3,4-ij]quinazolin-5-one] | 96
